# In US20260000670A1 (priority 2022, published 2026):
# What was measured:
# C57B1/6 mice [1] = experiment: anti-AAV8 IgM and IgG titers (ELISA on empty AAV8 capsids) after rAAV8 administration in mice; type: in vivo
# Protocol: (§1) FIG. 1. rAAV8 readministration in mice and Dasatinib treatment. C57B1/6 mice were intravenously dosed on study day 1 with a rAAV8 encoding the hSEAP (human secreted alkaline phosphatase) at the dose of 1E12 vg/kg. On study day 22, they received a second rAAV8 encoding hFIX (human Factor IX) at the dose of 5E13 vg/kg. […] Group 2 (immunized mice, n=10) received both rAAV8 injections. Group 3 mice (n=10) received the two rAAV8 injections and were treated by oral gavage with 50 mg/kg dasatinib twice per day for 7 days starting on the day of first rAAV8 dosing. Blood samples were collected one day before and every 7 days after the first rAAV8 treatment.
# (§2) FIGS. 2A-2C. Effects of dasatinib treatment on anti-AAV8 IgM titers. Serum was isolated from blood collected on study days 0, 8, 15, 21, 29 and 36 (FIG. 1) and anti-AA V8 IgM measured by ELISA, performed on immobilized empty AAV8 capsids. IgM antibody titers were determined by ELISA OD values of serial dilutions (1:10 and 7-step serial dilution 1:3). For the determination of mean background level, readouts were pooled from all mouse groups at day 0. The positivity threshold is represented by the dotted line. The kinetics of anti-AAV8 IgM antibody titers is shown for each mouse group (FIGS. 2A-2C). The empty circles represent titers under the threshold, and crossed circles represent titers above the threshold.
# as §2, with “FIGS. 3A-3C.” for “FIGS. 2A-2C.”, “anti-AAV8 IgG” for “anti-AAV8 IgM”, “and anti-AAV8 IgG” for “and anti-AA V8 IgM”, “capsids. IgG” for “capsids. IgM”, “of anti-AA V8 IgG” for “of anti-AAV8 IgM”, “(FIGS. 3A-3C).” for “(FIGS. 2A-2C).”
# To assess whether dasatinib could efficiently prevent anti-AAV antibody formation after rAAV administration and allow efficient re-administration of rAAV, a study was conducted in mice (FIG. 1). Groups of C57B1/6 mice were intravenously dosed with a first rAAV8 encoding hSEAP (human secreted alkaline phosphatase, under control of a CMV promoter) at the dose of 1E12vg/kg on study day 1. On study day 22, they were dosed with a second rAAV8 encoding hFIX (human Factor IX, under control of a CMV promoter) at the dose of 5E13 vg/kg. […] Group 3 mice were treated with Dasatinib at the dose of 50 mg/kg by oral gavage twice per day for 7 days, starting on the day of first rAAV8 dosing. […]
# C57B1/6 mice [2] = experiment: transgene expression (hSEAP, hFIX) in serum following rAAV8 re-administration; type: in vivo
# Protocol: as §1
# FIGS. 4A-4B. Dasatinib treatment allows transgene expression following rAAV re-administration. Serum was isolated from blood collected on study days 0, 8, 15, 21, 29 and 36 (FIG. 1). (FIG. 4A) Expression of the first transgene hSEAP was measured by chemiluminescence. (FIG. 4B) After AAV8 re-administration, expression of the second transgene hFactorIX was measured by ELISA. Mean concentrations are shown +/−SD.
# To assess whether dasatinib could efficiently prevent anti-AAV antibody formation after rAAV administration and allow efficient re-administration of rAAV, a study was conducted in mice (FIG. 1). Groups of C57B1/6 mice were intravenously dosed with a first rAAV8 encoding hSEAP (human secreted alkaline phosphatase, under control of a CMV promoter) at the dose of 1E12vg/kg on study day 1. On study day 22, they were dosed with a second rAAV8 encoding hFIX (human Factor IX, under control of a CMV promoter) at the dose of 5E13 vg/kg. […]
# Expression of the first transgene hSEAP and second transgene hFIX were measured in the serum samples from the experiment presented above (FIG. 1, Example 1). As expected, human SEAP was detected in the serum of mice from Groups 2 and 3, already 7 days after injection of AAV8-hSEAP on study day 1 (FIG. 4A). […] In contrast, hFIX expression was detected in the serum of all mice from the non-immunized Group 1 (mean: 2107 ng/ml) as well as in most mice from the dasatinib-treated Group 3 (average: 1398 ng/ml).
# human whole blood = experiment: AAV-mediated cytokine release in human whole blood (one AAV8 pre-immune donor); type: cell-based; conditions: dasatinib 12.5 or 50 nM, 24 hrs with 5E11 vg/mL AAV8-hSEAP
# Protocol: FIGS. 5A-5B. Effect of dasatinib on AAV-mediated cytokine release in human whole blood. The production of low levels of IFN-γ and IL-6 in whole blood are stimulated after 24 hrs incubation with 5E11 vg/mL of AAV8-hSEAP. […] Depicted are cytokine concentrations (pg/mL+/−SD, left), fold increases over the level measured in the PBS control (middle) and percentages of inhibition of AAV-dependent cytokine release (right, calculated as 100 × (concentration with AAV8 alone-concentration with AAV8 and dasatinib)/(concentration with AAV8 alone)), respectively. (FIG. 5A) Interferon-γ production. (FIG. 5B) IL-6 production.
# To assess whether dasatinib could affect AAV-mediated cytokine release, an assay was performed in whole blood from a healthy donor. This donor was seropositive for anti-AAV8 antibodies (IgG titer: 1/21870; IgM titer: 1/810). Whole blood from an AAV8 pre-immune donor was incubated in triplicates with 5E11 vg/mL (GC/mL) of an AAV8-hSEAP vector, in the presence or absence of 12.5 nM or 50 nM dasatinib. Lipopolysaccharide (LPS) and Lemtrada (alemtuzumab, anti-CD52, Genzyme), a monoclonal antibody known to induce strong cytokine release in blood, were used as positive controls at a concentration of 1 μg/ml and 0.1 μg/ml respectively. […] After 24 hrs, plasma supernatants were collected and cytokines measured using Quanterix kits with the SP-X imaging and analysis system (Simoa).
# [3] = Lindauer M et al, 2010; cited from earlier work
smiles,measurement,setting,value
"Cc1nc(Nc2ncc(C(=O)Nc3c(C)cccc3Cl)s2)cc(N2CCN(CCO)CC2)n1 [dasatinib, N-(2-chloro-6-methylphenyl)-2-[[6-[4-(2-hydroxyethyl)-1-piperazinyl]-2-methyl-4-pyrimidinyl]amino]-5-thiazole carboxamide monohydrate]",anti-AAV8 IgG titers compared with immunized control Group 2,"C57B1/6 mice [1]; Group 3, 50 mg/kg oral gavage twice per day for 7 days",drastically reduced
same,anti-AAV8 IgM in serum versus positivity threshold,"C57B1/6 mice [1]; Group 3, 50 mg/kg oral gavage twice per day for 7 days from first rAAV8 dosing, until administration of second rAAV8 (day 22)",remained underthe IgM positivity threshold
same,mice above the anti-AAV8 IgG positivity threshold,"C57B1/6 mice [1]; Group 3, study day 21, 50 mg/kg oral twice per day for 7 days",4/10
same,anti-AAV8 IgG titers after rAAV8 re-administration,"C57B1/6 mice [1]; day 36, two weeks after rAAV8 re-administration",comparable in all mouse groups
same,human SEAP in serum,"C57B1/6 mice [2]; Group 3, 7 days after AAV8-hSEAP on study day 1",detected
same,hFIX expression in serum (average),"C57B1/6 mice [2]; Group 3, after AAV8-hFIX 5E13 vg/kg on day 22, dasatinib 50 mg/kg twice per day for 7 days at first rAAV8 dosing",1398 ng/mL
same,hFIX expression detected in serum,"C57B1/6 mice [2]; Group 3, after second rAAV8 on day 22",in most mice
same,IFN-γ production,human whole blood,reduced dose-dependently
same,IL-6 production,human whole blood,reduced dose-dependently
same,half-life,[3],very short
